Measurements: PMC3144702, “Structural and Functional Analysis of the Complex between Citrate and the Zinc Peptidase Carboxypeptidase A” (2011)
pKi: −log10 of the molar value.

Tests used:
[1] = target: T1, carboxypeptidase A (Bos taurus, UniProt P00730); assay: competitive enzyme inhibition assay with AAFP substrate, absorbance; Ki from IC50 by Cheng-Prusoff; format: biochemical
T1 construct: gene CPA1
T1 sequence (P00730 111-419): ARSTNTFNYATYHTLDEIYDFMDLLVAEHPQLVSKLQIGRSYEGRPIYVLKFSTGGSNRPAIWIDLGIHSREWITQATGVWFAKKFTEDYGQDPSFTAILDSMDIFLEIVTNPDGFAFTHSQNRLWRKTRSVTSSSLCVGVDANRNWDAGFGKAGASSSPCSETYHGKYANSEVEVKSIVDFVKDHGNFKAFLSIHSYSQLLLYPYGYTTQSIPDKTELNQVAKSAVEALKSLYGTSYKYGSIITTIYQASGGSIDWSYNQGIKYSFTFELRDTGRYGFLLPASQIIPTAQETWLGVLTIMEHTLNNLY

[2] = target: T1, carboxypeptidase A; assay: X-ray crystal structure at […] Å; Ki from competitive inhibition assay with AAFP substrate; format: biochemical

O=C(O)C[C@@H](Cc1ccccc1)C(=O)O [BzlSA, benzylsuccinic acid]
pKi [1]: 6.28

O=C(O)CC(O)(CC(=O)O)C(=O)O [citrate]
pKi [2]: 2.30
